These results are taken from article PMC6367362, “MD001, a Novel Peroxisome Proliferator-activated Receptor α/γ Agonist, Improves Glucose and Lipid Metabolism” (Scientific Reports, 2019).

The structures appear in SMILES notation.

In one data set the target is T1, human HA-PPARγ (Homo sapiens, UniProt P37231).
T1 construct: expressed in transfected cells; host or cells: HEK293
T1 sequence (P37231 1-505): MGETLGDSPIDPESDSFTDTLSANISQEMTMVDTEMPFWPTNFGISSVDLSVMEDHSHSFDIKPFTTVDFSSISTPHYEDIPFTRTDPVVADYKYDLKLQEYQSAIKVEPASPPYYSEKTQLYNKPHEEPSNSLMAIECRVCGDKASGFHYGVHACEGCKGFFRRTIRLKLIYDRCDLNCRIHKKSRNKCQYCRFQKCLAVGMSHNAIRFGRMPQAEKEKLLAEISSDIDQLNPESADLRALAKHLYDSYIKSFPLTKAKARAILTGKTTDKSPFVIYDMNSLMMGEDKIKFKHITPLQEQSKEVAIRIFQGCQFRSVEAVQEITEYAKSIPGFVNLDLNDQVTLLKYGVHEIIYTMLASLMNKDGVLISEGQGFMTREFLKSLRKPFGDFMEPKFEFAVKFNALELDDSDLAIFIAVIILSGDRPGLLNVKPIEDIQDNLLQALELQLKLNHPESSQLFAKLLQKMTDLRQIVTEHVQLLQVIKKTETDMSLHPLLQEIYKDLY
The data set is described as follows: PPRE luciferase activity assay in HEK293 cells transfected with HA-PPARγ. In kind it is cell-based. Set-up: transcriptional activity of PPARγ: dose or concentration left out as unconfirmed. To be noted: HEK293, PPRE-pk-Luc; 24 h (Supplementary Fig. S2). Here is the method: (§1) Figure 2 MD001 induces the expression of target genes through PPARα and PPARγ activation. HEK293 cells were transiently co-transfected with human HA-PPARα (A) and HA-PPARγ (B) expression vectors along with the reporter plasmid (PPRE-pk-Luc) or control reporter plasmid (pk-Luc) with Renilla vector for 24 h. Cells were treated with MD001 (10 μM), rosiglitazone (rosi) (10 μM) or WY14643 (WY) (10 μM) for 24 h. Luciferase activity was normalised to Renilla luciferase activity as described in the Methods section. **, vs. vehicle. (C) HepG2 cells were treated with MD001 (10 μM) for 24 h, and total RNA was isolated and synthesised into cDNA. Relative expression was quantitated using qRT-PCR. **, vs. vehicle. (D,E) HepG2 cells were transfected with control siRNA, PPARα siRNA (D), or PPARγ siRNA (E) for 48 h and treated with vehicle, WY14643 (10 μM), rosiglitazone (10 μM) or MD001 (10 μM) for 24 h. Subsequently, cells were harvested for total RNA isolation. Relative expression of target genes was quantitated using qRT-PCR. ^#, vs. control siRNA; ^‡, vs. control siRNA/vehicle; ^§, vs. control siRNA/WY; * and **, vs. control siRNA/MD001. Data represent the mean ± SD of three independent experiments. *P < 0.05, **P < 0.01, ^#P < 0.01, ^‡P < 0.01, and ^§P < 0.01.
(§2) For transient transfection, cells were transfected with plasmid DNA constructs by polyethylenimine (PEI, Polysciences, Inc., Warrington, PA, USA) according to the manufacturer’s instructions. Transcription activity assays of PPARα and PPARγ in HEK293 cells were performed by co-transfection of HA-PPARα, HA-PPARγ, and peroxisome proliferator-response element (PPRE) reporter plasmid (PPRE-pk-Luc) or control reporter plasmid (pk-Luc) with Renilla vector for 24 h. […] Luciferase activity was measured with the Dual-Luciferase Reporter Assay System (Promega, Madison, WI, USA) and quantified using GloMax (Promega, USA) according to the manufacturer’s protocol. […]
(§3) Luciferase activity was measured as described in the Methods section. […]

The next data set concerns the target T2, human HA-PPARα (Homo sapiens, UniProt Q07869).
T2 construct: expressed in transfected cells; host or cells: HEK293
T2 sequence (Q07869 1-468): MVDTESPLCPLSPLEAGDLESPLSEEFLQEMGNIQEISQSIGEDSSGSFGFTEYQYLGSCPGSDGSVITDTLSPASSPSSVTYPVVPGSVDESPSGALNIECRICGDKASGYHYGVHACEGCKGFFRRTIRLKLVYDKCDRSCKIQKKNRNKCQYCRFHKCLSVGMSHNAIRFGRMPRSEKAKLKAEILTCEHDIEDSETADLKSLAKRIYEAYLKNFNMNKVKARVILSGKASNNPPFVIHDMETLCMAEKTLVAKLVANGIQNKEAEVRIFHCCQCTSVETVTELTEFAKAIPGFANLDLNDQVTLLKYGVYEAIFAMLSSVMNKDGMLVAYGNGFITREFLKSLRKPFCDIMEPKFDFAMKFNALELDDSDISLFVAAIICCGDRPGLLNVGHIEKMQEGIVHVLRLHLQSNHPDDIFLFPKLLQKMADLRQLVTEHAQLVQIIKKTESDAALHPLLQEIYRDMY
The data set is described as follows: PPRE luciferase activity assay in HEK293 cells transfected with HA-PPARα. The data set is classed as cell-based. On the set-up: transcriptional activity of PPARα: dose or concentration left out as unconfirmed. To be noted: HEK293, PPRE-pk-Luc; 24 h (Supplementary Fig. S2). Here is the method: as §1, §2, §3

In data set [1] the test system is db/db mice. To be noted: mouse, in vivo; for H&E staining of skeletal muscle: 20 mg/kg.
Protocol: (§4) (A) Changes in blood glucose levels was monitored in db/db mice administered once a day with vehicle, WY14643 (WY, 20 mg/kg), rosiglitazone (rosi, 20 mg/kg), or MD001 (n = 5–6 per group) as indicated. […] (D–M) The change in various blood metabolites was examined in db/db mice administered once a day with vehicle, WY14643 (WY), rosiglitazone (rosi), or MD001 (n = 5–6 per group). *, **, and ^#, vs. vehicle; ^†, vs. vehicle, MD001(5 mg/kg), and MD001(20 mg/kg). The data represent the mean ± S.D. *P < 0.05, **P < 0.01, ^#P < 0.001, and ^†P < 0.01.
(§5) Six-week-old C57BLKS/J-Lepr^db/Lepr^db or wild type C57BL/6J male mice were purchased from Orient Bio, Inc. (Seongnam, Korea) and acclimatised for one week. Mice were randomly grouped and orally administered with vehicle, WY14643 (20 mg/kg), rosiglitazone (20 mg/kg), or MD001 (5 mg/kg or 20 mg/kg) once a day for two months. […] Blood glucose levels were measured at the indicated time point using an OneTouch Ultra Blood Glucose Monitoring System (LifeScan, Inc., Milpitas, CA, USA).
(§6) Livers and blood samples were collected from mice in each group.
(§7) Tissues specimens including liver, perigonadal adipose tissue, skeletal muscle, spleen, kidney, and heart, were collected from mice in each group, fixed in 10% formalin, and embedded into paraffin. Tissue sections (5 μm) were stained with haematoxylin and eosin (H&E).
Data set [2] has as its system db/db mice. The data set is described as follows: Oral once-daily administration to diabetic db/db mice. Conditions: db/db mice; for number of large fat cells (>150 μm in diameter) / number of small fat cells (<100 μm in diameter): adipose tissue H&E; for blood glucose levels: MD001 5 or 20 mg/kg, WY14643 20 mg/kg, rosiglitazone 20 mg/kg; for diameter of the glomerular capsule: 20 mg/kg once a day for 60 days.
Protocol: as §4, §5, §6, §7

A further data set has as its system wild type C57BL/6J mice. The data set is described as follows: Oral once-daily administration to wild type C57BL/6J mice. In kind it is in vivo, mouse. Conditions: wild type C57BL/6J mice. Here is the method:
Supplementary Figure S6. MD001 has no influence on food intake of mice. (A) Wild type C57/BL6 mice were orally administered with vehicle, rosiglitazone (20 mg/kg), or MD001 (20 mg/kg) once a day for 60 days. The change in their body weight was evaluated and presented as gain of body weight per group (n = 5 - 6 in each group). (B) The 3-day food intake in wild type C57/BL6 mice or db/db mice during the administration of the indicated drug was measured three times (n = 5 - 6 in each group). The data represent the mean ± SD.
C57/BL6 mice. (A-H) Wild type C57/BL6 mice were administered with vehicle, rosiglitazone (20 mg/kg), or MD001 (20 mg/kg) (n = 5 in each group) for 60 days, and their blood metabolites were measured. (B) Blood glucose level was examined during the administration of the […]

`Cc1c(O)cc2oc(=O)c(C(=O)/C=C/c3ccccc3)c(-c3ccccc3)c2c1O` [MD002]: the melting point was in the range of 274 to 278 °C. Besides, the “transcriptional activity of PPARγ” value at human HA-PPARγ is “failed to enhance”. Moreover, the “transcriptional activity of PPARα” value on human HA-PPARα was “failed to enhance”.
For `Cc1cccc(Nc2cc(Cl)nc(SCC(=O)O)n2)c1C` [WY14643, reference compound], in the data set on db/db mice [1], the food ingestion entry is “without changes in food ingestion” and the “H&E staining of skeletal muscle” value is recorded as “no differences”. In the data set with db/db mice [2], the “number of large fat cells (>150 μm in diameter)” value is recorded as “significantly reduced”, the “number of small fat cells (<100 μm in diameter)” value is “significantly increased” and the “diameter of the glomerular capsule” value is “significantly reduced”. Also, in the data set with db/db mice [2] (oral once a day), the “blood FFA” value is reported as “significantly decreased”, the “blood TG” value is reported as “significantly decreased” and the blood glucose levels entry was “significantly decreased”. Also, in the data set on wild type C57BL/6J mice (once a day for 60 days), the body weight gain result is recorded as “no induction of body weight gain”.
For the compound `CN(CCOc1ccc(CC2SC(=O)NC2=O)cc1)c1ccccn1` (stereo not drawn) [rosiglitazone, reference compound], in the data set with db/db mice [1], the “H&E staining of skeletal muscle” value was “no differences”. In addition, in the data set with db/db mice [2], the “number of large fat cells (>150 μm in diameter)” value is listed as “significantly reduced”, the “number of small fat cells (<100 μm in diameter)” value is “significantly increased” and the “diameter of the glomerular capsule” value is “significantly reduced”. Further, in the data set with db/db mice [2] (oral once a day), the “blood FFA” value is reported as “significantly decreased”, the “blood TG” value was “significantly decreased”, the “blood alanine aminotransferase (ALT) levels” value is “significantly increased” and the “blood aspartate aminotransferase (AST) levels” value was “significantly increased”. In the data set on db/db mice [2] (oral once a day), the blood glucose levels entry is given as “significantly decreased”. In addition, in the data set with db/db mice [2] (20 mg/kg), the “hepatic TG” value was “failed to reduce” and the “hepatic steatosis (H&E staining of liver)” value was “exacerbated hepatic steatosis”. In addition, the “H&E staining of adipose tissue, skeletal muscle, and liver” value with wild type C57BL/6J mice (20 mg/kg once a day for 60 days) is on record as “no differences”.

For orientation: melting point means the temperature of the solid-liquid transition.
